From patent US7820623B2 (priority 2006, dated 2010)
Where two headings read alike, the source gives them in different places. Bridge positions count the residues as written; N and C are the ends. Square brackets hold non-standard residues; d marks the D form. Ends that are not written are not given here. Peptide text beside a SMILES is read from it. 1Nal = N[C@@H](Cc1cccc2ccccc12)C(=O)O

How the values were obtained:
[1] = tested on: thapsigargin-induced IFN-g production in human whole blood; type: cell-based
[2] = tested on: thapsigargin-induced IL-2 production in human whole blood
[3] = read-out: Analogue Activity (IC50) WB/IFNg
[4] = read-out: Analogue Activity (IC50) WB/IL-2

Molecule	IC50 ([1]; read-out: WB/IFNg (IC50)) [nM]	IC50 ([2]; read-out: WB/IL-2 (IC50)) [nM]	IC50 [1, 3] [nM]	IC50 [2, 4] [nM]
E16K, K20D, T36Y (GVIINVKCKISRQCLKPCKDAGMRFGKCMNGKCHCYPK; Definition of Artificial Sequence: Synthetic peptide)	0.923	0.639		
des1-7, E16K, K20D, des36-38 (CKISRQCLKPCKDAGMRFGKCMNGKCHC-NH2; ends and bridges not checked)	8.34	8.18		
CC[C@H](C)[C@H](NC(=O)[C@H](C)NC(=O)[C@@H](NC(=O)CN)C(C)C)C(=O)N[C@@H](CC(N)=O)C(=O)N[C@H](C(=O)N[C@@H](CCCCN)C(=O)N[C@H]1CSSC[C@@H]2NC(=O)[C@H](CCCCN)NC(=O)CNC(=O)[C@H](Cc3ccccc3)NC(=O)[C@H](CCCNC(=N)N)NC(=O)[C@H](CCSC)NC(=O)CNC(=O)[C@H](C)NC(=O)[C@H](CCCCN)NC(=O)[C@H](CCCCN)NC(=O)[C@@H]3CSSC[C@@H](C(=O)N[C@H](C(=O)N4CCC[C@H]4C(=O)N[C@@H](CCCCN)C(=O)O)[C@@H](C)O)NC(=O)[C@H](Cc4c[nH]cn4)NC(=O)[C@H](CSSC[C@H](NC(=O)[C@H](CCC(N)=O)NC(=O)[C@H](CCCNC(=N)N)NC(=O)[C@H](CO)NC(=O)[C@H]([C@@H](C)CC)NC(=O)[C@H](CCCCN)NC1=O)C(=O)N[C@@H](CC(C)C)C(=O)N[C@@H](CCC(=O)O)C(=O)N1CCC[C@H]1C(=O)N3)NC(=O)[C@H](CCCCN)NC(=O)CNC(=O)[C@H](CC(N)=O)NC(=O)[C@H](CCSC)NC2=O)C(C)C [I3A] (H-GVAINVKCKISRQCLEPCKKAGMRFGKCMNGKCHCTPK-OH; disulfide 8-28, 14-33, 18-35)			0.0992	0.0883
CC[C@H](C)[C@@H]1NC(=O)[C@H](CCCCN)NC(=O)[C@@H](NC(=O)[C@H](CCCCN)NC(=O)[C@@H](NC(=O)[C@H](CC(N)=O)NC(=O)[C@@H](NC(=O)[C@@H](NC(=O)[C@@H](NC(=O)CN)C(C)C)[C@@H](C)CC)[C@@H](C)CC)C(C)C)CSSC[C@@H]2NC(=O)[C@H](CCCCN)NC(=O)CNC(=O)[C@H](Cc3ccccc3)NC(=O)[C@H](CCCNC(=N)N)NC(=O)[C@H](CCSC)NC(=O)CNC(=O)[C@H](C)NC(=O)[C@H](CCCCN)NC(=O)[C@H](C)NC(=O)[C@@H]3CSSC[C@@H](C(=O)N[C@H](C(=O)N4CCC[C@H]4C(=O)N[C@@H](CCCCN)C(=O)O)[C@@H](C)O)NC(=O)[C@H](Cc4c[nH]cn4)NC(=O)[C@H](CSSC[C@H](NC(=O)[C@H](CCC(N)=O)NC(=O)[C@H](CCCNC(=N)N)NC(=O)[C@H](CO)NC1=O)C(=O)N[C@@H](CC(C)C)C(=O)N[C@@H](CCC(=O)O)C(=O)N1CCC[C@H]1C(=O)N3)NC(=O)[C@H](CCCCN)NC(=O)CNC(=O)[C@H](CC(N)=O)NC(=O)[C@H](CCSC)NC2=O [K19A] (H-GVIINVKCKISRQCLEPCAKAGMRFGKCMNGKCHCTPK-OH; disulfide 8-28, 14-33, 18-35)			0.163	0.163
CC[C@H](C)[C@@H]1NC(=O)[C@H](CCCCN)NC(=O)[C@@H](NC(=O)[C@H](CCCCN)NC(=O)[C@@H](NC(=O)[C@H](CC(N)=O)NC(=O)[C@@H](NC(=O)[C@@H](NC(=O)[C@@H](NC(=O)CN)C(C)C)[C@@H](C)CC)[C@@H](C)CC)C(C)C)CSSC[C@@H]2NC(=O)[C@H](CCCCN)NC(=O)CNC(=O)[C@H](Cc3ccccc3)NC(=O)[C@H](CCCNC(=N)N)NC(=O)[C@H](CCSC)NC(=O)CNC(=O)[C@H](C)NC(=O)[C@H](C)NC(=O)[C@H](CCCCN)NC(=O)[C@@H]3CSSC[C@@H](C(=O)N[C@H](C(=O)N4CCC[C@H]4C(=O)N[C@@H](CCCCN)C(=O)O)[C@@H](C)O)NC(=O)[C@H](Cc4c[nH]cn4)NC(=O)[C@H](CSSC[C@H](NC(=O)[C@H](CCC(N)=O)NC(=O)[C@H](CCCNC(=N)N)NC(=O)[C@H](CO)NC1=O)C(=O)N[C@@H](CC(C)C)C(=O)N[C@@H](CCC(=O)O)C(=O)N1CCC[C@H]1C(=O)N3)NC(=O)[C@H](CCCCN)NC(=O)CNC(=O)[C@H](CC(N)=O)NC(=O)[C@H](CCSC)NC2=O [K20A] (H-GVIINVKCKISRQCLEPCKAAGMRFGKCMNGKCHCTPK-OH; disulfide 8-28, 14-33, 18-35)			0.379	0.379
CC[C@H](C)[C@@H]1NC(=O)[C@H](CCCCN)NC(=O)[C@@H](NC(=O)[C@H](CCCCN)NC(=O)[C@@H](NC(=O)[C@H](CC(N)=O)NC(=O)[C@@H](NC(=O)[C@@H](NC(=O)[C@@H](NC(=O)CN)C(C)C)[C@@H](C)CC)[C@@H](C)CC)C(C)C)CSSC[C@@H]2NC(=O)[C@H](CCCCN)NC(=O)CNC(=O)[C@H](Cc3ccccc3)NC(=O)[C@H](CCCNC(=N)N)NC(=O)[C@H](CCSC)NC(=O)CNC(=O)[C@H](C)NC(=O)[C@H](CCCCN)NC(=O)[C@H](CCCCN)NC(=O)[C@@H]3CSSC[C@@H](C(=O)N[C@H](C(=O)N4CCC[C@H]4C(=O)N[C@@H](CCCCN)C(=O)O)[C@@H](C)O)NC(=O)[C@H](Cc4c[nH]cn4)NC(=O)[C@H](CSSC[C@H](NC(=O)[C@H](CCC(N)=O)NC(=O)[C@H](CCCNC(=N)N)NC(=O)[C@H](CO)NC1=O)C(=O)N[C@@H](CC(C)C)C(=O)N[C@@H](CCC(=O)O)C(=O)N[C@@H](Cc1cccc4ccccc14)C(=O)N3)NC(=O)[C@H](CCCCN)NC(=O)CNC(=O)[C@H](CC(N)=O)NC(=O)[C@H](CCSC)NC2=O [P17Nal] (H-GVIINVKCKISRQCLE[1Nal]CKKAGMRFGKCMNGKCHCTPK-OH; disulfide 8-28, 14-33, 18-35)			0.357	0.193
CC[C@H](C)[C@@H]1NC(=O)[C@H](CCCCN)NC(=O)[C@@H](NC(=O)[C@H](CCCCN)NC(=O)[C@@H](NC(=O)[C@H](CC(N)=O)NC(=O)[C@@H](NC(=O)[C@H](Cc2cccc3ccccc23)NC(=O)[C@@H](NC(=O)CN)C(C)C)[C@@H](C)CC)C(C)C)CSSC[C@@H]2NC(=O)[C@H](CCCCN)NC(=O)CNC(=O)[C@H](Cc3ccccc3)NC(=O)[C@H](CCCNC(=N)N)NC(=O)[C@H](CCSC)NC(=O)CNC(=O)[C@H](C)NC(=O)[C@H](CCCCN)NC(=O)[C@H](CCCCN)NC(=O)[C@@H]3CSSC[C@@H](C(=O)N[C@H](C(=O)N4CCC[C@H]4C(=O)N[C@@H](CCCCN)C(=O)O)[C@@H](C)O)NC(=O)[C@H](Cc4c[nH]cn4)NC(=O)[C@H](CSSC[C@H](NC(=O)[C@H](CCC(N)=O)NC(=O)[C@H](CCCNC(=N)N)NC(=O)[C@H](CO)NC1=O)C(=O)N[C@@H](CC(C)C)C(=O)N[C@@H](CCC(=O)O)C(=O)N1CCC[C@H]1C(=O)N3)NC(=O)[C@H](CCCCN)NC(=O)CNC(=O)[C@H](CC(N)=O)NC(=O)[C@H](CCSC)NC2=O [I3Nal] (H-GV[1Nal]INVKCKISRQCLEPCKKAGMRFGKCMNGKCHCTPK-OH; disulfide 8-28, 14-33, 18-35)			0.739	0.907
CC[C@H](C)[C@H](NC(=O)[C@@H](NC(=O)CN)C(C)C)C(=O)N[C@H](C(=O)N[C@@H](CC(N)=O)C(=O)N[C@H](C(=O)N[C@@H](CCCCN)C(=O)N[C@H]1CSSC[C@@H]2NC(=O)[C@H](CCCCN)NC(=O)CNC(=O)[C@H](Cc3ccccc3)NC(=O)[C@H](CCCNC(=N)N)NC(=O)[C@H](CCSC)NC(=O)CNC(=O)[C@H](C)NC(=O)[C@H](CCCCN)NC(=O)[C@H](CCCCN)NC(=O)[C@@H]3CSSC[C@@H](C(=O)N[C@H](C(=O)N4CCC[C@H]4C(=O)N[C@@H](CCCCN)C(=O)O)[C@@H](C)O)NC(=O)[C@H](Cc4c[nH]cn4)NC(=O)[C@H](CSSC[C@H](NC(=O)[C@H](CCC(N)=O)NC(=O)[C@H](CCCNC(=N)N)NC(=O)[C@H](CO)NC(=O)[C@H](CCCNC(=N)N)NC(=O)[C@H](CCCCN)NC1=O)C(=O)N[C@@H](CC(C)C)C(=O)N[C@@H](CCC(=O)O)C(=O)N1CCC[C@H]1C(=O)N3)NC(=O)[C@H](CCCCN)NC(=O)CNC(=O)[C@H](CC(N)=O)NC(=O)[C@H](CCSC)NC2=O)C(C)C)[C@@H](C)CC [I10R] (H-GVIINVKCKRSRQCLEPCKKAGMRFGKCMNGKCHCTPK-OH; disulfide 8-28, 14-33, 18-35)			0.474	0.307
CC[C@H](C)[C@@H]1NC(=O)[C@H](Cc2cccc3ccccc23)NC(=O)[C@@H](NC(=O)[C@H](CCCCN)NC(=O)[C@@H](NC(=O)[C@H](CC(N)=O)NC(=O)[C@@H](NC(=O)[C@@H](NC(=O)[C@@H](NC(=O)CN)C(C)C)[C@@H](C)CC)[C@@H](C)CC)C(C)C)CSSC[C@@H]2NC(=O)[C@H](CCCCN)NC(=O)CNC(=O)[C@H](Cc3ccccc3)NC(=O)[C@H](CCCNC(=N)N)NC(=O)[C@H](CCSC)NC(=O)CNC(=O)[C@H](C)NC(=O)[C@H](CCCCN)NC(=O)[C@H](CCCCN)NC(=O)[C@@H]3CSSC[C@@H](C(=O)N[C@H](C(=O)N4CCC[C@H]4C(=O)N[C@@H](CCCCN)C(=O)O)[C@@H](C)O)NC(=O)[C@H](Cc4c[nH]cn4)NC(=O)[C@H](CSSC[C@H](NC(=O)[C@H](CCC(N)=O)NC(=O)[C@H](CCCNC(=N)N)NC(=O)[C@H](CO)NC1=O)C(=O)N[C@@H](CC(C)C)C(=O)N[C@@H](CCC(=O)O)C(=O)N1CCC[C@H]1C(=O)N3)NC(=O)[C@H](CCCCN)NC(=O)CNC(=O)[C@H](CC(N)=O)NC(=O)[C@H](CCSC)NC2=O [K9Nal] (H-GVIINVKC[1Nal]ISRQCLEPCKKAGMRFGKCMNGKCHCTPK-OH; disulfide 8-28, 14-33, 18-35)			1.22	1.07
CC[C@H](C)[C@@H]1NC(=O)[C@H](CCCCN)NC(=O)[C@@H](NC(=O)[C@H](CCCCN)NC(=O)[C@@H](NC(=O)[C@H](CC(N)=O)NC(=O)[C@@H](NC(=O)[C@@H](NC(=O)[C@@H](NC(=O)CN)C(C)C)[C@@H](C)CC)[C@@H](C)CC)C(C)C)CSSC[C@@H]2NC(=O)[C@H](CCCCN)NC(=O)CNC(=O)[C@H](C)NC(=O)[C@H](CCCNC(=N)N)NC(=O)[C@H](CCSC)NC(=O)CNC(=O)[C@H](C)NC(=O)[C@H](CCCCN)NC(=O)[C@H](CCCCN)NC(=O)[C@@H]3CSSC[C@@H](C(=O)N[C@H](C(=O)N4CCC[C@H]4C(=O)N[C@@H](CCCCN)C(=O)O)[C@@H](C)O)NC(=O)[C@H](Cc4c[nH]cn4)NC(=O)[C@H](CSSC[C@H](NC(=O)[C@H](CCC(N)=O)NC(=O)[C@H](CCCNC(=N)N)NC(=O)[C@H](CO)NC1=O)C(=O)N[C@@H](CC(C)C)C(=O)N[C@@H](CCC(=O)O)C(=O)N1CCC[C@H]1C(=O)N3)NC(=O)[C@H](CCCCN)NC(=O)CNC(=O)[C@H](CC(N)=O)NC(=O)[C@H](CCSC)NC2=O [F25A] (H-GVIINVKCKISRQCLEPCKKAGMRAGKCMNGKCHCTPK-OH; disulfide 8-28, 14-33, 18-35)			3.08	3.08
